Experiments:
5-HT2A receptor = molecular target: T1, 5-HT2A receptor (Homo sapiens, UniProt P28223); assay: Serotonin receptor binding, [3H] Ketanserin, CHO-K1 membranes
T1 construct: expressed in transfected cells; host or cells: CHO-K1
Method: Aliquots of suspended membranes of human recombinant CHO-K1 cells stably expressing human 5-HT1A, 5-HT2A, 5-HT1B, 5-HT2B, 5-HT2C, 5-HT4, 5-HT6 or 5-HT7 receptors were pre-incubated at 25° C. with 1.5 nM [^3H] 8-OH-DPAT (5-HT1A), 1.5 nM [^3H] Ketanserin (5-HT2A), 0.01 nM [^125I] Cyanopindolol (5-HT1B), 1 nM [^3H] Mesulergine (5-HT2c), 0.7 nM [^3H] GR-113808 (5-HT4) or at 37° C. 1.2 nM [^3H] LSD (5-HT2B, 5-HT6 and 5-HT7) in buffer (50 mM Tris-HCl, pH 7.7) alone or in the presence of 1 nM, 10 nM, 0.1 μM, 1 μM, and 10 μM of N-[2-(5-methoxy-indol-3-yl)-ethyl]-commenamide, N-[2-(5-methoxy-indol-3-yl)-ethyl]-coumalylamide, N-[2-(5-methoxy-indol-3-yl)-ethyl]-comanilamide, N-[2-(5-methoxy-indol-3-yl)-ethyl]-2-methoxy-commenamide or N-[2-(5-methoxy-indol-3-yl)-ethyl]-chelidonamide for 60 minutes. The binding reaction was terminated and washed with 4 ml ice-cold 50 mM Tris-HCl buffer by vacuum filtration. Membranes were then collected, and the filters containing the bound ligands were assayed for the amount of radioactivity in a b-counter. Non-specific binding was evaluated using a reaction with 10 μM metergoline (5-HT1A), 1 μM mianserin (5-HT2A and 5-HT2c) or 10 μM serotonin (5-HT1B, 5-HT2B, 5-HT4, 5-HT6 and 5-HT7).

C57BL/6 mice = assay: MPTP mouse model of Parkinson's disease, striatal dopamine, DOPAC and HVA levels (HPLC); type: in vivo
Description: Three-month-old male C57BL/6 mice were housed in groups of 5 animals per cage (50 cm×25 cm×20 cm) in a temperature- and humidity-controlled environment with ad libitum access to food and water. Animals were maintained on a 12 hr light/dark schedule, with lights on at 7 A.M.
Six groups of mice were used: (1) the control mice treated with saline and vehicle (n=10), (2) the N-[2-(5-methoxy-indol-3-yl)-ethyl]-comanilamide control mice treated with saline and N-[2-(5-methoxy-indol-3-yl)-ethyl]-comanilamide at 100 or 200 mg/kg (n=5, respectively), (3) the MPTP mice treated with MPTP and vehicle (n=10) and (4) the N-[2-(5-methoxy-indol-3-yl)-ethyl]-comanilamide-treated MPTP mice treated with MPTP and N-[2-(5-methoxy-indol-3-yl)-ethyl]-comanilamide at 100 or 200 mg/kg (n=10, respectively). Mice received daily (i.p.) injections of saline or MPTP (30 mg/kg/day) dissolved in physiological saline for five consecutive days to induce Parkinsonism. N-[2-(5-methoxy-indol-3-yl)-ethyl]-comanilamide or vehicle was administered (i.p.) once per day for 17 days, starting on the first day of MPTP injections. Open field test, pole test, forepaw stride length test and traction test were conducted on day 14, 15, 16 and 17 after the first injections of MPTP, respectively.
To measure striatal dopamine, DOPAC and HVA levels, mice were sacrificed at day 17 after the final injection of MPTP. The striata were dissected and stored at −70° C. before assays. Striatal dopamine levels were measured by high performance liquid chromatography (HPLC) with electrochemical detection.

[1] = test system: rat primary cortical neurons; assay: Neurite outgrowth in rat primary cortical neurons; type: cell-based
Method: The aim of this study was to assess the potential effect of N-[2-(5-methoxy-indol-3-yl)-ethyl]-comanilamide (100 nM) after 5 days of culture on neurite outgrowth in rat primary cortical neurons. The study used three separate cultures (n=6 wells per condition); the mean value of the 3 cultures (+/−sem) was calculated.
Rat cortical neurons were cultured as described by Singer et al., 1999. Briefly pregnant female rats of 15 days gestation are killed by cervical dislocation (Rats Wistar; Janvier) and the fetuses removed from the uterus. The cortex are removed and placed in ice-cold medium of Leibovitz (L15; Invitrogen) containing 1% of Penicillin-Streptomycin (PS; Invitrogen) and 1% of bovine serum albumin (BSA; Sigma). Cortex are dissociated by trypsinisation for 20 min at 37° C. (Trypsin EDTA 1×; Invitrogen) diluted in PBS without calcium and magnesium. The reaction is stopped by the addition of Dulbecco's modified Eagle's medium (DMEM; Invitrogen) containing DNAase I grade II (0.1 mg/ml; Roche Diagnostic) and 10% of fetal calf serum (FCS; Invitrogen). Cells are then mechanically dissociated by 3 passages through a 10 ml pipette. Cells are then centrifuged at 180×g for 10 min at 10° C. The supernatant is discarded and the cells of pellet are re-suspended in a defined culture medium consisting of Neurobasal (Invitrogen) supplemented with B27 (2%; Invitrogen), L-glutamine (0.2 mM; Invitrogen) and 1% of PS solution with 10 ng/ml of Brain-derived neurotrophic factor (BDNF).
For the neurite outgrowth assay, the cells are seed with test compound A (at 100 nM) and reference compound (BDNF at 10 ng/ml used as reference control) on defined medium (Neurobasal supplemented with 2% of B27, 0.2 mM of L-glutamine and 1% of PS).
The cultures were done (a) without BDNF in order to analyse the neurotrophic effect of compounds alone and (b) with low BDNF concentration (0.5 ng/ml) in order to analyse the synergic neurotrophic effect of N-[2-(5-methoxy-indol-3-yl)-ethyl]-comanilamide with the growth factor.
After 5 days of culture in presence of N-[2-(5-methoxy-indol-3-yl)-ethyl]-comanilamide and reference, cells were fixed by a cool solution of ethanol (95%) and acetic acid (5%) for 10 min. After permeabilization with 0.1% of saponin, cells were incubated with monoclonal antibody anti microtubule associated protein 2 (MAP-2; Sigma). This antibody stains specifically cell bodies and neurite of neurons. […] Nuclei of neurons were labeled by a fluorescent marker (Hoechst solution, SIGMA). Per well, 20 pictures were taken using InCell Analyzer™ 1000 (GE Healthcare) with 20× magnification. All images were done in the same conditions. Analysis of the neuritis networks and neuron were assessed using Developer software (GE Healthcare). […]

[2] = MPTP mice, 100 or 200 mg/kg/day i.p.

T1 sequence (P28223 whole entry): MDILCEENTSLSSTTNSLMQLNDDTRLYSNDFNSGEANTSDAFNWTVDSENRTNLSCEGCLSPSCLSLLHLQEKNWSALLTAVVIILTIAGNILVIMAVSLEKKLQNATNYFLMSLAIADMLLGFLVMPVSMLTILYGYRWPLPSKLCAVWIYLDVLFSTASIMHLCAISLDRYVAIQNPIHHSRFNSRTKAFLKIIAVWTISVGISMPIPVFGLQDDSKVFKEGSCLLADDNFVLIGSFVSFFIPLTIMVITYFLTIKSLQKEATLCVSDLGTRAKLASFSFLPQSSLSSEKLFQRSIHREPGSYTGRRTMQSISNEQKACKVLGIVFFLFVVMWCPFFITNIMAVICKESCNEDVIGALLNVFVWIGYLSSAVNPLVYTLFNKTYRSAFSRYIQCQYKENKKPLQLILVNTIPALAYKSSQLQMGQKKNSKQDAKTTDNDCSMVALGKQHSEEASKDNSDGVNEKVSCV

Row | SMILES | IC50 (5-HT2A receptor) | Ki (5-HT2A receptor) | striatal dopamine level vs MPTP mice (C57BL/6 mice; MPTP mice, 100 or 200 mg/kg i.p., p<0.01 and p<0.05, respectively) | striatal DOPAC level (C57BL/6 mice; [2]) | striatal HVA level (C57BL/6 mice; [2]) | striatal dopamine level vs control mice (C57BL/6 mice; saline mice, 100 or 200 mg/kg i.p., both p>0.05) | neurotrophic effect, compound alone ([1]; 100 nM alone in the culture medium, without BDNF) | activity at 0.1 µM ([1]; Rattus norvegicus, Primary cortical neuron, 120 h, 100 nM + BDNF 0.5 ng/ml, 5 days of culture, read-out: neurite length, % of control)
1 | COc1ccc2[nH]cc(CCNC(=O)c3cc(=O)cc(C(=O)O)o3)c2c1 [N-[2-5-methoxy-indol-3-yl)-ethyl]-chelidonamide] | 7.5 µM | 2.14 µM | – | – | – | – | – | –
2 | COc1ccc2[nH]cc(CCNC(=O)c3cc(=O)cco3)c2c1 [N-[2-(5-methoxy-indol-3-yl)-ethyl]-comanilamide] | – | – | showed more level of dopamine concentration | ameliorated the MPTP-induced reductions | ameliorated the MPTP-induced reductions | no significant difference in dopamine level | no neurotrophic effect | ~145%

Source: US9101613B2, “Methods for treating neurological disease” (Neurim Pharmaceuticals (1991) Ltd., priority 2006, dated 2015)
